Results reported in patent US20250320193A1, “OXOISOINDOLINYL SUBSTITUTED PIPERIDINEDIONE DERIVATIVE AND USE THEREOF” (GLUETACS THERAPEUTICS (SHANGHAI) CO., LTD., priority 2022, published 2025).

Columns and labels:
[1] = biological target: human Cereblon WT GST-tagged protein (Homo sapiens (Human), UniProt Q96SW2); experiment: CRBN-binding affinity, HTRF (CEREBLON BINDING kit, CISBIO); conditions: HTRF inhibitory activity
Outline: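 Compounds were mixed with GST-tagged human Cereblon WT protein, then with Thalidomide-Red tracer and GST Eu antibody, and binding was read by HTRF. Inhibition rate was calculated from 620 nm emission relative to blank control wells (no protein) and solvent control wells.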

GSPT1 = GSPT1 (Homo sapiens (Human), UniProt P15170+Q96SW2); experiment: Western blot, substrate protein expression in hPBMC: GSPT1; format: cell-based; conditions: for substrate protein remaining % GSPT1: hPBMC, compound 500 nM, 24 hours, Western blot
Outline: (§1)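 hPBMC, 1×10^6 cells/mL, 24 h compound exposure; RIPA lysis, BCA protein assay, SDS-PAGE, NC membrane immunoblot. Densitometry vs internal control → % protein remaining; degradation % = 100% − remaining; DC50 = conc. at 50% of DMSO band signal.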

IKZF1 = IKZF1 (Homo sapiens (Human), UniProt Q13422+Q96SW2); experiment: Western blot, substrate protein expression in hPBMC: IKZF1; format: cell-based; conditions: hPBMC, compound 500 nM, 24 hours, Western blot
Outline: as §1

IKZF3 = IKZF3 (Homo sapiens (Human), UniProt Q96SW2+Q9UKT9); experiment: Western blot, substrate protein expression in hPBMC: IKZF3; format: cell-based; conditions: hPBMC, compound 500 nM, 24 hours, Western blot
Outline: as §1

Chain of human Cereblon WT GST-tagged protein (Q96SW2 whole entry): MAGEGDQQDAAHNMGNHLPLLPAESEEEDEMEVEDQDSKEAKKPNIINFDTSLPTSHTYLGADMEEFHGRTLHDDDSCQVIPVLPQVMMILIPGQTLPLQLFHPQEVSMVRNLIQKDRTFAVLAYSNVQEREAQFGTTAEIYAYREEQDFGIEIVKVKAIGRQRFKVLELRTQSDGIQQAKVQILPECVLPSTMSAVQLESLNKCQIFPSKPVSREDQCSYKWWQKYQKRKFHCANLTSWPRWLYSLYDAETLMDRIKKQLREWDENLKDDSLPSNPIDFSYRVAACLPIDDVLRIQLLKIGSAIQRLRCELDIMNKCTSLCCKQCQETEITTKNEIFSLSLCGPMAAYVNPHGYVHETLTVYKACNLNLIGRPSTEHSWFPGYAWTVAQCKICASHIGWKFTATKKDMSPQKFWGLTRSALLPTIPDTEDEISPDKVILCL
Chain of IKZF1 (Q13422 whole entry): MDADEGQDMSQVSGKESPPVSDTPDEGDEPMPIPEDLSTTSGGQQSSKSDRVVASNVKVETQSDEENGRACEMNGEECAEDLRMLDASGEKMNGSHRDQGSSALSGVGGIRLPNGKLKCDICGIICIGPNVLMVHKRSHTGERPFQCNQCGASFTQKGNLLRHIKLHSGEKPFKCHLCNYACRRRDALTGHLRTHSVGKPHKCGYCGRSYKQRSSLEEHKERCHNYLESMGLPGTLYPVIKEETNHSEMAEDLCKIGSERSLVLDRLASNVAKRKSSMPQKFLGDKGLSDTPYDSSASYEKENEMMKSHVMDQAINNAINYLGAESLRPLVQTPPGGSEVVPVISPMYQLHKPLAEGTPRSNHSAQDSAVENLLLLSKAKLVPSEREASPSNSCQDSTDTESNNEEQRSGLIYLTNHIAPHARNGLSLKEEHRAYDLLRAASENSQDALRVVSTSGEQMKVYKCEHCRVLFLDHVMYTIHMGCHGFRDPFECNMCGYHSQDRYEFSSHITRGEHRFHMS
Chain of IKZF1 (Q96SW2 whole entry): as the sequence (Q96SW2 whole entry) above
Chain of IKZF1 (Q16531 whole entry partner): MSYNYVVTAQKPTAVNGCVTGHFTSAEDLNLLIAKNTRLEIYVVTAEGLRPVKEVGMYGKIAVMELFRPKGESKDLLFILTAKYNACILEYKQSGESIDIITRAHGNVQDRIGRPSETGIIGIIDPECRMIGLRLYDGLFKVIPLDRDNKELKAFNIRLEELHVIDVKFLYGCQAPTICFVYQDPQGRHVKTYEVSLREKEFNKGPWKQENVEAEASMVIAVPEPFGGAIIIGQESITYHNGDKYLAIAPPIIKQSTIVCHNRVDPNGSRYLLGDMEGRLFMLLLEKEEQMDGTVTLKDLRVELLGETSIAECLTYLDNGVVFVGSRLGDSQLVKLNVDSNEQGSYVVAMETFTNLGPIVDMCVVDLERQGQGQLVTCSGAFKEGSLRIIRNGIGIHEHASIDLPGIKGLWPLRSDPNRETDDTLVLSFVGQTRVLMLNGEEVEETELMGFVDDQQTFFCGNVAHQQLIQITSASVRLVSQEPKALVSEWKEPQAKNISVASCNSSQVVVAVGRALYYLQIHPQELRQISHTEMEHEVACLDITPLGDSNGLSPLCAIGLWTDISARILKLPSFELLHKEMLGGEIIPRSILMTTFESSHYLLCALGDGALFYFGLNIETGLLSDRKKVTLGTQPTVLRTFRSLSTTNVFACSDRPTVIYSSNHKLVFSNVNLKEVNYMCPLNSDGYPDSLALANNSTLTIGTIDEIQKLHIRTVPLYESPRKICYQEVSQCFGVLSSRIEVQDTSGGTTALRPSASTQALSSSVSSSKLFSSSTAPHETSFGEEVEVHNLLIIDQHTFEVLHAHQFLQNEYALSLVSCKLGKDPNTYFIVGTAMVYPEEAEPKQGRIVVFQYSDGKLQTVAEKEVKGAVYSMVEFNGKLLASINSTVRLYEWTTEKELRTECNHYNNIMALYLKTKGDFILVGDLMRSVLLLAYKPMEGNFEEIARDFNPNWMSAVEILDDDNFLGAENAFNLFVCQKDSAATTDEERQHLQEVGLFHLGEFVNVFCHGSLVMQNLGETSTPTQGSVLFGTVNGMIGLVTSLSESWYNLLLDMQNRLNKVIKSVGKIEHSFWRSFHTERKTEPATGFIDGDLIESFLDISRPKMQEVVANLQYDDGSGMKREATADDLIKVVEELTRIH
Chain of IKZF3 (Q9UKT9 whole entry): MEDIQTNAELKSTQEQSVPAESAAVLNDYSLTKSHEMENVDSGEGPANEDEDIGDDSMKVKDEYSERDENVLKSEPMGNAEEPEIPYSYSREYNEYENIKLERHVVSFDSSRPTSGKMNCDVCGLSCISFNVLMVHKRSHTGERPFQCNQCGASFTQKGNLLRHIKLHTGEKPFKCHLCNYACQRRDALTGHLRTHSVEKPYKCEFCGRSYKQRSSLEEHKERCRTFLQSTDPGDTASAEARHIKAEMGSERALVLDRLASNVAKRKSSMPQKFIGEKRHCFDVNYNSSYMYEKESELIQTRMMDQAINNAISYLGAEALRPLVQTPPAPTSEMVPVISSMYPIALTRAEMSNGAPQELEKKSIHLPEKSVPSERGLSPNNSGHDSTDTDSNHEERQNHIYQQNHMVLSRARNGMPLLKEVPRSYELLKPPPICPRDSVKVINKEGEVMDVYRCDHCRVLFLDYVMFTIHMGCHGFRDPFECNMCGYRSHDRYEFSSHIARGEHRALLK
Chain of IKZF3 (Q96SW2 whole entry): as the sequence (Q96SW2 whole entry) above
Chain of IKZF3 (Q16531 whole entry partner): as the sequence (Q16531 whole entry partner) above
Chain of GSPT1 (P15170 whole entry): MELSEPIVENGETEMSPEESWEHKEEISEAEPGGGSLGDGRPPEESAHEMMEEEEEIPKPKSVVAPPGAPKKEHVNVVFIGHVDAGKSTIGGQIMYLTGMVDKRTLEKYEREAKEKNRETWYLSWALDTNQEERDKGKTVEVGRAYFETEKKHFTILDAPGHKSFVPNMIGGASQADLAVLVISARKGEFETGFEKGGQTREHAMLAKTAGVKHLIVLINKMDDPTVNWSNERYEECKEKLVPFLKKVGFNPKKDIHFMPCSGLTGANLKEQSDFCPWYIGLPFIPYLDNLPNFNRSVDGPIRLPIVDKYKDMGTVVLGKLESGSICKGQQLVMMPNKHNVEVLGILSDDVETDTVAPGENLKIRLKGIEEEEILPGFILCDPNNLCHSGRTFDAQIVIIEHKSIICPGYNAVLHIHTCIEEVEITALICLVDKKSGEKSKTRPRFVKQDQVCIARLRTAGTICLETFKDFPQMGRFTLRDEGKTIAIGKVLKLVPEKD
Chain of GSPT1 (Q96SW2 whole entry): as the sequence (Q96SW2 whole entry) above
Chain of GSPT1 (Q16531 whole entry partner): as the sequence (Q16531 whole entry partner) above

O=C1CCC(N2Cc3cc(C(=O)N4CCN(C(c5ccccc5)c5ccccn5)CC4)ccc3C2=O)C(=O)N1 (stereo not shown) [GT-05854, 3-(1-oxo-5-(4-(phenyl(pyridin-2-yl)methyl)piperazine-1-carbonyl)isoindolin-2-yl)piperidine-2,6-dione]
IC50 [1]: 1000 to 1900 nM
substrate protein remaining % GSPT1 (GSPT1): A (A represents 0% ≤ substrate protein remaining % ≤ 50%)
substrate protein remaining % IKZF1 (IKZF1): B (B represents substrate protein remaining % > 50%)
substrate protein remaining % IKZF3 (IKZF3): B (B represents substrate protein remaining % > 50%)

O=C1CCC(N2Cc3cc(CN4CCC(N(c5ccccc5)c5ccccn5)CC4)cc(F)c3C2=O)C(=O)N1 (stereo not shown) [GT-05858, 3-(7-fluoro-1-oxo-5-((4-(phenyl(pyridin-2-yl)amino)piperidin-1-yl)methyl)isoindolin-2-yl)piperidine-2,6-dione]
IC50 [1]: 500 to 1000 nM
substrate protein remaining % GSPT1 (GSPT1): A (A represents 0% ≤ substrate protein remaining % ≤ 50%)
concentration at which GSPT1 protein was clearly/significantly degraded (Western blot, FIG. 1) (GSPT1; hPBMCs): below 50 nM
substrate protein remaining % IKZF1 (IKZF1): B (B represents substrate protein remaining % > 50%)
substrate protein remaining % IKZF3 (IKZF3): B (B represents substrate protein remaining % > 50%)

O=C1CCC(N2Cc3cc(CC4CN(C(c5ccccc5)c5ccccc5)C4)ccc3C2=O)C(=O)N1 (stereo not shown) [GT-05859, 3-(5-((1-benzhydrylazetidin-3-yl)methyl)-1-oxoisoindolin-2-yl)piperidine-2,6-dione]
IC50 [1]: < 500 nM
substrate protein remaining % GSPT1 (GSPT1): A (A represents 0% ≤ substrate protein remaining % ≤ 50%)
substrate protein remaining % IKZF1 (IKZF1): A (A represents 0% ≤ substrate protein remaining % ≤ 50%)
substrate protein remaining % IKZF3 (IKZF3): B (B represents substrate protein remaining % > 50%)

O=C1CCC(N2Cc3cc(C4CCN(C(c5ccccc5)c5ccccc5)CC4)ccc3C2=O)C(=O)N1 (stereo not shown) [GT-05868, 3-(5-(1-benzhydrylpiperidin-4-yl)-1-oxoisoindolin-2-yl)piperidine-2,6-dione]
IC50 [1]: 500 to 1000 nM
substrate protein remaining % GSPT1 (GSPT1): A (A represents 0% ≤ substrate protein remaining % ≤ 50%)
substrate protein remaining % IKZF1 (IKZF1): A (A represents 0% ≤ substrate protein remaining % ≤ 50%)
substrate protein remaining % IKZF3 (IKZF3): A (A represents 0% ≤ substrate protein remaining % ≤ 50%)

O=C1CCC(N2Cc3cc(C(=O)N4CCN(C(c5ccccc5)c5ccccn5)CC4)cc(F)c3C2=O)C(=O)N1 (stereo not shown) [GT-05877, 3-(7-fluoro-1-oxo-5-(4-(phenyl(pyridin-2-yl)methyl)piperazine-1-carbonyl)isoindolin-2-yl)piperidine-2,6-dione]
IC50 [1]: 1000 to 1900 nM
substrate protein remaining % GSPT1 (GSPT1): A (A represents 0% ≤ substrate protein remaining % ≤ 50%)
substrate protein remaining % IKZF1 (IKZF1): B (B represents substrate protein remaining % > 50%)
substrate protein remaining % IKZF3 (IKZF3): B (B represents substrate protein remaining % > 50%)

O=C1CCC(N2Cc3cc(C(=O)N4CCN(C(c5ccc(F)cc5)c5ccc(F)cc5)CC4)ccc3C2=O)C(=O)N1 (stereo not shown) [GT-05881, 3-(5-(4-(bis(4-fluorophenyl)methyl)piperazine-1-carbonyl)-1-oxoisoindolin-2-yl)piperidine-2,6-dione]
IC50 [1]: 500 to 1000 nM
substrate protein remaining % GSPT1 (GSPT1): A (A represents 0% ≤ substrate protein remaining % ≤ 50%)
substrate protein remaining % IKZF1 (IKZF1): B (B represents substrate protein remaining % > 50%)
substrate protein remaining % IKZF3 (IKZF3): B (B represents substrate protein remaining % > 50%)

O=C1CCC(N2Cc3cc(C(=O)N4CCN(C(c5ccc(F)cc5)c5ccc(F)cc5)CC4)cc(F)c3C2=O)C(=O)N1 (stereo not shown) [GT-05882, 3-(5-(4-(bis(4-fluorophenyl)methyl)piperazine-1-carbonyl)-7-fluoro-1-oxoisoindolin-2-yl)piperidine-2,6-dione]
IC50 [1]: 500 to 1000 nM
substrate protein remaining % GSPT1 (GSPT1): A (A represents 0% ≤ substrate protein remaining % ≤ 50%)
substrate protein remaining % IKZF1 (IKZF1): B (B represents substrate protein remaining % > 50%)
substrate protein remaining % IKZF3 (IKZF3): B (B represents substrate protein remaining % > 50%)

O=C1CCC(N2Cc3cc(C(=O)N4CCN(C(c5ccc(Cl)cc5)c5ccc(Cl)cc5)CC4)ccc3C2=O)C(=O)N1 (stereo not shown) [GT-05886, 3-(5-(4-(bis(4-chlorophenyl)methyl)piperazine-1-carbonyl)-1-oxoisoindolin-2-yl)piperidine-2,6-dione]
IC50 [1]: 1000 to 1900 nM
substrate protein remaining % GSPT1 (GSPT1): A (A represents 0% ≤ substrate protein remaining % ≤ 50%)
substrate protein remaining % IKZF1 (IKZF1): B (B represents substrate protein remaining % > 50%)
substrate protein remaining % IKZF3 (IKZF3): A (A represents 0% ≤ substrate protein remaining % ≤ 50%)

O=C1CCC(N2Cc3c(CN4CC5(CCN(C(c6ccccc6)c6ccccc6)CC5)C4)cccc3C2=O)C(=O)N1 (stereo not shown) [GT-05905, 3-(4-((7-benzhydryl-2,7-diazaspiro[3.5]nonan-2-yl)methyl)-1-oxoisoindolin-2-yl)piperidine-2,6-dione]
IC50 [1]: 500 to 1000 nM
substrate protein remaining % GSPT1 (GSPT1): A (A represents 0% ≤ substrate protein remaining % ≤ 50%)
substrate protein remaining % IKZF1 (IKZF1): B (B represents substrate protein remaining % > 50%)
substrate protein remaining % IKZF3 (IKZF3): B (B represents substrate protein remaining % > 50%)

CC1CN(C(c2ccccc2)c2ccccc2)CC(C)N1C(=O)c1ccc2c(c1)CN(C1CCC(=O)NC1=O)C2=O (stereo not shown) [GT-05920, 3-(5-(4-benzhydryl-2,6-dimethylpiperazine-1-carbonyl)-1-oxoisoindolin-2-yl)piperidine-2,6-dione]
IC50 [1]: < 500 nM
substrate protein remaining % GSPT1 (GSPT1): A (A represents 0% ≤ substrate protein remaining % ≤ 50%)
substrate protein remaining % IKZF1 (IKZF1): B (B represents substrate protein remaining % > 50%)
substrate protein remaining % IKZF3 (IKZF3): B (B represents substrate protein remaining % > 50%)

CC1CN(C(c2ccccc2)c2ccccc2)CC(C)N1C(=O)c1ccc2c(c1)C(=O)N(C1CCC(=O)NC1=O)C2=O (stereo not shown) [GT-05922, 5-(4-benzhydryl-2,6-dimethylpiperazine-1-carbonyl)-2-(2,6-dioxopiperidin-3-yl) isoindoline-1,3-dione]
IC50 [1]: 1000 to 1900 nM
substrate protein remaining % GSPT1 (GSPT1): A (A represents 0% ≤ substrate protein remaining % ≤ 50%)
substrate protein remaining % IKZF1 (IKZF1): B (B represents substrate protein remaining % > 50%)
substrate protein remaining % IKZF3 (IKZF3): B (B represents substrate protein remaining % > 50%)

O=C1CCC(N2Cc3cc(C(=O)N4CCC(N(c5ccccc5)c5ccccn5)CC4)ccc3C2=O)C(=O)N1 (stereo not shown) [GT-05923, 3-(1-oxo-5-(4-(phenyl(pyridin-2-yl)amino)piperidine-1-carbonyl)isoindolin-2-yl)piperidine-2,6-dione]
IC50 [1]: < 500 nM
substrate protein remaining % GSPT1 (GSPT1): A (A represents 0% ≤ substrate protein remaining % ≤ 50%)
substrate protein remaining % IKZF1 (IKZF1): B (B represents substrate protein remaining % > 50%)
substrate protein remaining % IKZF3 (IKZF3): B (B represents substrate protein remaining % > 50%)

O=C1CCC(N2Cc3cc(C(=O)N4CCC(N(c5ccccc5)c5ccccn5)CC4)cc(F)c3C2=O)C(=O)N1 (stereo not shown) [GT-05924, 3-(7-fluoro-1-oxo-5-(4-(phenyl(pyridin-2-yl)amino)piperidine-1-carbonyl)isoindolin-2-yl)piperidine-2,6-dione]
IC50 [1]: 500 to 1000 nM
substrate protein remaining % GSPT1 (GSPT1): A (A represents 0% ≤ substrate protein remaining % ≤ 50%)
substrate protein remaining % IKZF1 (IKZF1): B (B represents substrate protein remaining % > 50%)
substrate protein remaining % IKZF3 (IKZF3): B (B represents substrate protein remaining % > 50%)

O=C1CCC(N2Cc3cc(C(=O)N4CCC(N(c5ccccc5)c5ccccc5)CC4)ccc3C2=O)C(=O)N1 (stereo not shown) [GT-05926, 3-(5-(4-(diphenylamino)piperidine-1-carbonyl)-1-oxoisoindolin-2-yl)piperidine-2,6-dione]
IC50 [1]: < 500 nM
substrate protein remaining % GSPT1 (GSPT1): A (A represents 0% ≤ substrate protein remaining % ≤ 50%)
substrate protein remaining % IKZF1 (IKZF1): B (B represents substrate protein remaining % > 50%)
substrate protein remaining % IKZF3 (IKZF3): B (B represents substrate protein remaining % > 50%)

O=C1CCC(N2Cc3cc(C(=O)N4CCC(N(c5ccccc5)c5ccccc5)CC4)cc(F)c3C2=O)C(=O)N1 (stereo not shown) [GT-05927, 3-(5-(4-(diphenylamino)piperidine-1-carbonyl)-7-fluoro-1-oxoisoindolin-2-yl)piperidine-2,6-dione]
IC50 [1]: < 500 nM
substrate protein remaining % GSPT1 (GSPT1): A (A represents 0% ≤ substrate protein remaining % ≤ 50%)
substrate protein remaining % IKZF1 (IKZF1): B (B represents substrate protein remaining % > 50%)
substrate protein remaining % IKZF3 (IKZF3): B (B represents substrate protein remaining % > 50%)
